In patent US20060217345A1, “Beta-L-nucleosides and use thereof as pharmaceutical agents for the treatment of viral diseases” (priority 2003, published 2006):
Like-named read-outs stand apart in the source and are kept apart here.

Tests used:
[1] = system: HBV replication in HepG2 2.2.15 cells; test: Antiviral activity: reduction of extracellular HBV DNA in HepG2 2.2.15 cells; assay type: cell-based, hepatitis B virus; conditions: read-out: ED50 values (concentration resulting in 50% reduction of HBV DNA in the medium of the cells)
Procedure: The antiviral efficacy of the compounds of at least one embodiment was investigated on HepG2 2.2.15 cells, a human hepatoblastoma cell line which has the replication-competent HBV genome stably integrated therein and produces infectious progeny viruses in a productive manner (Sells et al., Proc Natl Acad Sci USA 1987, 84: 1005-1009).
The above cells were cultured under standardized conditions as specified by Korba and Gerin, and the amount of extracellular viral DNA was determined (Korba et al., Antiviral Res 1992, 19: 55-70).
Following passaging, the HepG2 2.2.15 cells were seeded at a density of about 60% in 12-well plates and cultured to confluence in 10% FBS Dulbecco MEM. Thereafter, the medium was changed to 2% FBS, and the cells were cultured for another 24 hours.
After another change of medium, the cells were treated with varying concentrations of compounds according to at least one embodiment. Every 24 hours the compounds were re-added together with the medium. […]
Following treatment of the culture supernatants with proteinase K, the extracellular viral DNA was amplified by means of PCR using the following primers (forward: 5′-CTCCAGTTCAGGAACAGTAAACCC-3′; reverse: 5′-TTGTGAGCTCAGAAAGGCCTTGTAAGTTGGCG-3′. The PCR products were separated on 1% agarose, stained with ethidium bromide and quantified using a Fluor-S™ Multimager (Biorad).
For calibration of the PCR reaction, serial dilutions of the pUC19 HBV and pTHBV plasmids with known genome equivalents (GE) were used, resulting in a lower detection limit of about 10^3 GE and a linearity between 10^3 and 10^5 GE.

[2] = system: HBV replication; conditions: 5-modified β-L-cytosine nucleosides; compares with compounds with non-modified bases; cited from earlier work
[3] = biological target: T1, HBV DNA polymerase (Hepatitis B virus genotype D subtype ayw, UniProt P03156); test: Inhibition of endogenous HBV DNA polymerase activity (3H-dCTP incorporation); assay type: biochemical; conditions: nucleoside triphosphates; purified virus particles from patient serum; 0.7 μM dCTP; two-hour incubation at 37° C.; read-out: IC50 (50% inhibition of the HBV DNA polymerase activity)
T1 construct: 30 μl of polymerase batch included about 2-4×10^8 purified virus particles (lysed beforehand); from tissue; host or cells: Serum of patients infected with hepatitis B virus (Charité, Berlin); virus particles purified through a saccharose gradient and lysed
T1 sequence (P03156 whole entry): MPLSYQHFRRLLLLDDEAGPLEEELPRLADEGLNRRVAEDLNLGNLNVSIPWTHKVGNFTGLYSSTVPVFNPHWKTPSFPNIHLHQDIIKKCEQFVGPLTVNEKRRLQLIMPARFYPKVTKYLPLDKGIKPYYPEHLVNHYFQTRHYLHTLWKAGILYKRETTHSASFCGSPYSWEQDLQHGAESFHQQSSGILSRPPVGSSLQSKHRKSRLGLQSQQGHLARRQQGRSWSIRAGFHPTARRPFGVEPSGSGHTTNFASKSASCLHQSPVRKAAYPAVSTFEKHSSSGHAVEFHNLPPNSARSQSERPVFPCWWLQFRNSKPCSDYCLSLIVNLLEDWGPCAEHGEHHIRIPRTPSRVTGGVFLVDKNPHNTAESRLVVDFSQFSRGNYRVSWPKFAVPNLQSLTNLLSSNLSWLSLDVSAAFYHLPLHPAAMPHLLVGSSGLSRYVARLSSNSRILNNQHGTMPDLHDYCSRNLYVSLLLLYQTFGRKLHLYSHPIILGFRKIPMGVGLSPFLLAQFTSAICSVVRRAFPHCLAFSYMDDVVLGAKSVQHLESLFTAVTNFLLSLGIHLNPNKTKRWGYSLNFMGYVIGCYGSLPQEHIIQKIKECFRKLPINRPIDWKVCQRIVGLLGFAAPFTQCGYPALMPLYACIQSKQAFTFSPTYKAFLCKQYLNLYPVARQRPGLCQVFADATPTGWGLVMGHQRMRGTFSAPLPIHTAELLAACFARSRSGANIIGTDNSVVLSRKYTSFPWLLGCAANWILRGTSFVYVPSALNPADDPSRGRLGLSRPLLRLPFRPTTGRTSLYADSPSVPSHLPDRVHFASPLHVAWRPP
Procedure: Synthesis and purification of the triphosphates of β-L-5-methylcytidine nucleosides were effected according to well-known methods (Yoshikawa et al., Tetradedron Lett 1967, 50: 5065-5068; Hoard et Ott, J Am Chem Soc 1965, 87: 1785-1788).
To determine the endogenous HBV DNA polymerase activity, about 60 ml of serum from patients with hepatitis B virus infections from Charité, Berlin (>10^7 HBV particles/ml), was centrifuged at 3000 rpm, followed by sedimentation of the virus particles at 25,000 g, 60 min, taking up in 7 ml of TKM buffer (50 mM Tris-HCl, pH 7.5, 50 mM KCl, 5 mM MgCl2), and centrifugation through a saccharose gradient (0.3 M, 0.6 M, 0.9 M saccharose in 10 ml of TKM buffer each time) at 25,000 g for 20 hours. The purified virus sediment was suspended in 400 μl of TKM using ultrasound, divided in aliquots and frozen at −80° C. (Davies et al., Antiviral Res 1996, 30: 133-145).
30 μl of polymerase batch included about 2-4×10^8 purified virus particles (lysed beforehand in 6% β-mercaptoethanol, 10% Igepal for 15 min at room temperature), 42 mM Tris-HCl, (pH 7.5), 34 mM MgCl2, 340 mM KCl, 22 mM β-mercaptoethanol, 0.4% Igepal, 70 μM TTP, dATP, dGTP and 1 μCi ^3H-dCTP (=0.7 μM dCTP) (Matthes et al., Antimicrob Agents & Chemoth 1991, 35: 1254-1257) and varying concentrations of β-L-5-methylcytidine nucleoside triphosphates.
Following a two-hour incubation at 37° C., 20 μl of each batch was placed on paper filter, washed 5 times with 5% trichloroacetic acid and 0.1% Na pyrophosphate, and the ^3H-dCTP incorporated in the HBV DNA was subsequently measured in a Liquid Scintillation Counter.
Using the concentration-dependent inhibition curves of HBV DNA synthesis, the concentration of β-L-5-methylcytidine nucleoside triphosphates resulting in 50% inhibition of the HBV DNA polymerase activity was determined. The IC50 values are illustrated in Table 2.

[4] = system: HL-60 cells; test: Cytotoxicity: inhibition of proliferation of HL-60 cells; assay type: cell-based, human; conditions: RPMI medium, incubated for two days
Procedure: (§1) To this end, established cells of a human myeloid leukemia (HL-60) in RPMI medium, and the above-mentioned HepG2 cells in Dulbecco MEM, respectively, were incubated for two days using varying concentrations of compounds, and the proliferation rate of the cells was subsequently determined. The data was used to determine the concentration of compounds resulting in 50% inhibition of proliferation (CD50).

[5] = system: HepG2 cells; test: Cytotoxicity: inhibition of proliferation of HepG2 cells; assay type: cell-based, human; conditions: Hep G2 cells, Dulbecco MEM, incubated for two days
Procedure: as §1

[6] = system: HBV infections; conditions: treatment of HBV infections; cited from earlier work
[7] = HepG2 2.2.15 cells, extracellular HBV DNA by PCR, after 9 days of incubation

## Nc1ccn([C@@H]2CS[C@H](CO)O2)c(=O)n1 [3TC, β-L-2′,3′-dideoxy-3′-thiacytidine, reference compound]
[1]; Hepatitis B virus, 216 h, HepG2 2.2.15 cells, extracellular HBV DNA by PCR, after 9 days of incubation
  EC50: 100 to 200 nM

## Nc1nc(=O)n([C@H]2C[C@H](O)[C@@H](CO)O2)cc1Cl [CldC, β-L-deoxy-5-chlorocytidine]
[2]
  effect with respect to HBV replication, as described in the literature: ineffective or sparingly effective

## Nc1nc(=O)n([C@H]2C[C@H](O)[C@@H](CO)O2)cc1F [FdC, β-L-deoxy-5-fluorocytidine]
[2]
  effect with respect to HBV replication, as described in the literature: less effective

## Nc1nc(=O)n(C2OC(CO)C=C2F)cc1F [L-2′F-ddeFC, β-L-2′,3′-dideoxy-2′,3′-didehydro-2′-fluoro-5-fluorocytidine]
[2]
  effect with respect to HBV replication, as described in the literature: equally effective

## Nc1nc(=O)n([C@H]2O[C@@H](CO)[C@H](O)[C@H]2O)cc1F [L-AraFC, β-L-arabinofuranosyl-5-fluorocytosine]
[2]
  effect with respect to HBV replication, as described in the literature: no effect

## Nc1nc(=O)n([C@H]2O[C@@H](CO)[C@H](O)[C@H]2F)cc1Br [L-FABrC, β-L-2′-fluoroarabinofuranosyl-5-bromocytosine]
[2]
  effect with respect to HBV replication, as described in the literature: ineffective or sparingly effective

## Nc1nc(=O)n([C@H]2O[C@@H](CO)[C@H](O)[C@H]2F)cc1Cl [L-FAC1C, β-L-2′-fluoroarabinofuranosyl-5-chlorocytidine]
[2]
  effect with respect to HBV replication, as described in the literature: ineffective or sparingly effective

## Nc1nc(=O)n([C@H]2O[C@@H](CO)[C@H](O)[C@H]2F)cc1F [L-FAFC, β-L-2′-fluoroarabinofuranosyl-5-fluorocytosine]
[2]
  effect with respect to HBV replication, as described in the literature: no effect

## Nc1nc(=O)n([C@H]2CC[C@@H](CO)O2)cc1F [L-FddC, β-L-2′,3′-dideoxy-5-fluorocytidine]
[2]
  effect with respect to HBV replication, as described in the literature: equally effective

## Nc1nc(=O)n([C@@H]2C=C[C@H](CO)O2)cc1F [L-FddeC, β-L-2′,3′-dideoxy-2′,3′-didehydro-5-fluorocytidine]
[2]
  effect with respect to HBV replication, as described in the literature: more effective

## Nc1ccn([C@@H]2CS[C@H](COP(=O)(O)OP(=O)(O)OP(=O)(O)O)O2)c(=O)n1 [Triphosphate of 3TC, reference compound]
[3]
  IC50: 300 nM

## Cc1cn([C@H]2O[C@@H](COP(=O)(O)OP(=O)(O)OP(=O)(O)O)[C@H](O)[C@H]2O)c(=O)nc1N [Triphosphate of β-L-AraMetC]
[3]
  IC50: 10800 nM

## Cc1cn([C@@H]2C[C@@H](O)[C@H](COP(=O)(O)OP(=O)(O)OP(=O)(O)O)O2)c(=O)nc1N [Triphosphate of β-L-MetCdR]
[3]
  IC50: 900 nM

## Cc1cn([C@@H]2C[C@@H](N=[N+]=[N-])[C@H](COP(=O)(O)OP(=O)(O)OP(=O)(O)O)O2)c(=O)nc1N [Triphosphate of β-L-N3MetCdR]
[3]
  IC50: 800 nM

## Cc1cn([C@@H]2CC[C@H](COP(=O)(O)OP(=O)(O)OP(=O)(O)O)O2)c(=O)nc1N [Triphosphate of β-L-ddMetCdR]
[3]
  IC50: 6500 nM

## Cc1cn([C@@H]2C=C[C@H](COP(=O)(O)OP(=O)(O)OP(=O)(O)O)O2)c(=O)nc1N [Triphosphate of β-L-ddeMetCdR]
[3]
  IC50: 6200 nM

## Cc1cn([C@@H]2C[C@@H](F)[C@H](CO)O2)c(=O)nc1N [β-L-2′,3′-dideoxy-3′-fluoro-5-methylcytidine]
[2]
  effect with respect to HBV replication, as described in the literature: ineffective or sparingly effective

## Nc1nc(=O)n(C2CSC(CO)O2)cc1Br [β-L-2′,3′-dideoxy-3′-thia-5-bromocytidine]
[2]
  effect with respect to HBV replication, as described in the literature: ineffective or sparingly effective

## Nc1nc(=O)n(C2CSC(CO)O2)cc1Cl [β-L-2′,3′-dideoxy-3′-thia-5-chlorocytidine]
[2]
  effect with respect to HBV replication, as described in the literature: ineffective or sparingly effective

## Cc1cn(C2CSC(CO)O2)c(=O)nc1N [β-L-2′,3′-dideoxy-3′-thia-5-methylcytidine]
[2]
  effect with respect to HBV replication, as described in the literature: ineffective or sparingly effective

## Cc1cn([C@H]2O[C@@H](CO)[C@H](O)[C@H]2O)c(=O)nc1N [β-L-AraMetC, 1-β-L-arabinofuranosyl-5-methylcytosine]
[1]; Hepatitis B virus, HepG2 2.2.15, 216 h
  EC50: > 20000 nM
[4]
  Cytotoxicity (CD50), concentration resulting in 50% inhibition of proliferation: >2000
[5]
  Cytotoxicity (CD50), concentration resulting in 50% inhibition of proliferation: >2000

## Cc1cn([C@@H]2C[C@@H](O)[C@H](CO)O2)c(=O)nc1N [β-L-MetCdR, β-L-5-methyldeoxycytidine]
[1]; [7]
  EC50: 270 to 600 nM
[4]
  Cytotoxicity (CD50), concentration resulting in 50% inhibition of proliferation: >2000
[5]
  Cytotoxicity (CD50), concentration resulting in 50% inhibition of proliferation: >2000

## Cc1cn([C@@H]2C[C@@H](N=[N+]=[N-])[C@H](CO)O2)c(=O)nc1N [β-L-N3MetCdR, β-L-3′-azido-2′,3′-dideoxy-5-methylcytidine]
[1]; [7]
  EC50: 350 to 950 nM
[4]
  Cytotoxicity (CD50), concentration resulting in 50% inhibition of proliferation: 2000
[5]
  Cytotoxicity (CD50), concentration resulting in 50% inhibition of proliferation: >2000

## Cc1cn([C@@H]2CC[C@H](CO)O2)c(=O)nc1N [β-L-ddMetC, β-L-2′,3′-dideoxy-5-methylcytidine]
[1]; [7]
  EC50: > 20000 nM

## Cc1cn([C@@H]2C=C[C@H](CO)O2)c(=O)nc1N [β-L-ddeMetC, β-L-2′,3′-didehydro-2′,3′-dideoxy-5-methylcytidine]
[1]; [7]
  EC50: > 20000 nM
[4]
  Cytotoxicity (CD50), concentration resulting in 50% inhibition of proliferation: 600
[5]
  Cytotoxicity (CD50), concentration resulting in 50% inhibition of proliferation: 1500

## α-interferon
[6]
  proportion of the patients in whom it is effective: about 33%
